Test results from the kinase profiling compilation of Christmann-Franck et al. (2016).

Tests used:
EPHB2 (human) = EPHB2 (human) (UniProt P29323); test: radiometric filter-binding kinase assay
EPHB3 (human) = EPHB3 (human) (UniProt P54753); test: radiometric filter-binding kinase assay
HIPK3 (human) = HIPK3 (human) (UniProt Q9H422); test: radiometric filter-binding kinase assay
INSRR (human) = INSRR (human) (UniProt P14616); test: radiometric filter-binding kinase assay
MAPK15 (human) = MAPK15 (human) (UniProt Q8TD08); test: radiometric filter-binding kinase assay
[1] = test system: ABL1 (human), P00519 [Q252H]; test: KINOMEscan competition binding; settings: compound 10.0 µM
[2] = test system: ABL1 (human), P00519 [T315I]; test: KINOMEscan competition binding; settings: compound 10.0 µM
[3] = test system: ABL1 (human), P00519 [Y253F]; test: KINOMEscan competition binding; settings: compound 10.0 µM
ABL2 (human) = ABL2 (human) (UniProt P42684); test: KINOMEscan competition binding; settings: compound 10.0 µM
CDK18 (human) = CDK18 (human) (UniProt Q07002); test: KINOMEscan competition binding; settings: compound 10.0 µM
CDK8 (human) = CDK8 (human) (UniProt P49336); test: KINOMEscan competition binding; settings: compound 10.0 µM
DDR1 (human) = DDR1 (human) (UniProt Q08345); test: KINOMEscan competition binding; settings: compound 10.0 µM
[4] = test system: EGFR (human), P00533 [G719S]; test: KINOMEscan competition binding; settings: compound 10.0 µM
[5] = test system: EGFR (human), P00533 [L858R]; test: KINOMEscan competition binding; settings: compound 10.0 µM
EPHA8 (human) = EPHA8 (human) (UniProt P29322); test: KINOMEscan competition binding; settings: compound 10.0 µM
ERBB4 (human) = ERBB4 (human) (UniProt Q15303); test: KINOMEscan competition binding; settings: compound 10.0 µM
FGFR1 (human) = FGFR1 (human) (UniProt P11362); test: KINOMEscan competition binding; settings: compound 10.0 µM
FGFR4 (human) = FGFR4 (human) (UniProt P22455); test: KINOMEscan competition binding; settings: compound 10.0 µM
[6] = test system: FLT3 (human), P36888 [D835H]; test: KINOMEscan competition binding; settings: compound 10.0 µM
FLT4 (human) = FLT4 (human) (UniProt P35916); test: KINOMEscan competition binding; settings: compound 10.0 µM
GAK (human) = GAK (human) (UniProt O14976); test: KINOMEscan competition binding; settings: compound 10.0 µM
[7] = test system: KIT (human), P10721 [V559D/V654A]; test: KINOMEscan competition binding; settings: compound 10.0 µM
MAP4K2 (human) = MAP4K2 (human) (UniProt Q12851); test: KINOMEscan competition binding; settings: compound 10.0 µM
MAPK8 (human) = MAPK8 (human) (UniProt P45983); test: KINOMEscan competition binding; settings: compound 10.0 µM
MAPK9 (human) = MAPK9 (human) (UniProt P45984); test: KINOMEscan competition binding; settings: compound 10.0 µM
MKNK2 (human) = MKNK2 (human) (UniProt Q9HBH9); test: KINOMEscan competition binding; settings: compound 10.0 µM
MUSK (human) = MUSK (human) (UniProt O15146); test: KINOMEscan competition binding; settings: compound 10.0 µM
MYO3B (human) = MYO3B (human) (UniProt Q8WXR4); test: KINOMEscan competition binding; settings: compound 10.0 µM
NLK (human) = NLK (human) (UniProt Q9UBE8); test: KINOMEscan competition binding; settings: compound 10.0 µM
NTRK3 (human) = NTRK3 (human) (UniProt Q16288); test: KINOMEscan competition binding; settings: compound 10.0 µM
PDGFRA (human) = PDGFRA (human) (UniProt P16234); test: KINOMEscan competition binding; settings: compound 10.0 µM
PTK2 (human) = PTK2 (human) (UniProt Q05397); test: KINOMEscan competition binding; settings: compound 10.0 µM
RAF1 (human) = RAF1 (human) (UniProt P04049); test: KINOMEscan competition binding; settings: compound 10.0 µM
[8] = test system: RET (human), P07949 [V804M]; test: KINOMEscan competition binding; settings: compound 10.0 µM
SRC (human) = SRC (human) (UniProt P12931); test: KINOMEscan competition binding; settings: compound 10.0 µM
STK36 (human) = STK36 (human) (UniProt Q9NRP7); test: KINOMEscan competition binding; settings: compound 10.0 µM
TEK (human) = TEK (human) (UniProt Q02763); test: KINOMEscan competition binding; settings: compound 10.0 µM
TNIK (human) = TNIK (human) (UniProt Q9UKE5); test: KINOMEscan competition binding; settings: compound 10.0 µM
TNNI3K (human) = TNNI3K (human) (UniProt Q59H18); test: KINOMEscan competition binding; settings: compound 10.0 µM

HIPK3 (human), sequence (Q9H422 whole entry, looked up): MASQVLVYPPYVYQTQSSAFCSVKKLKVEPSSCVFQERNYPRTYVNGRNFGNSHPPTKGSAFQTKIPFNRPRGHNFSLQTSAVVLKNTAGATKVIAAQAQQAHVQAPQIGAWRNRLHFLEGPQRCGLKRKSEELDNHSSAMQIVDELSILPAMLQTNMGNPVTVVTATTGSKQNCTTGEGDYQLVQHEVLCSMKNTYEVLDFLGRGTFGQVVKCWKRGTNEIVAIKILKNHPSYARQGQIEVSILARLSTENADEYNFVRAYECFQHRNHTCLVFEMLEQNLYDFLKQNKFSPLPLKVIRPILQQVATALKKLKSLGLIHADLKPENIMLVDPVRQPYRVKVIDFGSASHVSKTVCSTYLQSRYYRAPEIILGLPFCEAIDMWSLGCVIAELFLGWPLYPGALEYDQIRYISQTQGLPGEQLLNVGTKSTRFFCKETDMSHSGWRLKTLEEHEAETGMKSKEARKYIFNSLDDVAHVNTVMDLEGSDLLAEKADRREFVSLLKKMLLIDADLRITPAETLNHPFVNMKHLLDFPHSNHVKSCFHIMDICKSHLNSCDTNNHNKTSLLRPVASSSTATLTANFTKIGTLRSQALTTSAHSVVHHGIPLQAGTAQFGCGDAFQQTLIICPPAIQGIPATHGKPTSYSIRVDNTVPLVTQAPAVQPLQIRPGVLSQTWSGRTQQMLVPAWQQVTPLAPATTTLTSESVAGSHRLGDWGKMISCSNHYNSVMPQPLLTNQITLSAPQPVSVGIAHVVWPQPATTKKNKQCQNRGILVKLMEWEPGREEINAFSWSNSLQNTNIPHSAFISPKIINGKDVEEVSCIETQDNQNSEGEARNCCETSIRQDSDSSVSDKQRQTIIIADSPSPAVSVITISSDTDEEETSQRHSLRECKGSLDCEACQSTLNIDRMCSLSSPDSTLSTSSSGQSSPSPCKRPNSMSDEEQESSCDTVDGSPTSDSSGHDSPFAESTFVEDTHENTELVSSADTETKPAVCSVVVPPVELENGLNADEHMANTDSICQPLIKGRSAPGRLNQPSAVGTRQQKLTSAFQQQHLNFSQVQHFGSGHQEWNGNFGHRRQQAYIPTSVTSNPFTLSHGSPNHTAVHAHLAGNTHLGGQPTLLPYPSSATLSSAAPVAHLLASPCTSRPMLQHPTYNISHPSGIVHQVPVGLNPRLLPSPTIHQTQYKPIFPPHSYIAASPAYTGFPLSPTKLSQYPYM
INSRR (human), sequence (P14616 whole entry, looked up): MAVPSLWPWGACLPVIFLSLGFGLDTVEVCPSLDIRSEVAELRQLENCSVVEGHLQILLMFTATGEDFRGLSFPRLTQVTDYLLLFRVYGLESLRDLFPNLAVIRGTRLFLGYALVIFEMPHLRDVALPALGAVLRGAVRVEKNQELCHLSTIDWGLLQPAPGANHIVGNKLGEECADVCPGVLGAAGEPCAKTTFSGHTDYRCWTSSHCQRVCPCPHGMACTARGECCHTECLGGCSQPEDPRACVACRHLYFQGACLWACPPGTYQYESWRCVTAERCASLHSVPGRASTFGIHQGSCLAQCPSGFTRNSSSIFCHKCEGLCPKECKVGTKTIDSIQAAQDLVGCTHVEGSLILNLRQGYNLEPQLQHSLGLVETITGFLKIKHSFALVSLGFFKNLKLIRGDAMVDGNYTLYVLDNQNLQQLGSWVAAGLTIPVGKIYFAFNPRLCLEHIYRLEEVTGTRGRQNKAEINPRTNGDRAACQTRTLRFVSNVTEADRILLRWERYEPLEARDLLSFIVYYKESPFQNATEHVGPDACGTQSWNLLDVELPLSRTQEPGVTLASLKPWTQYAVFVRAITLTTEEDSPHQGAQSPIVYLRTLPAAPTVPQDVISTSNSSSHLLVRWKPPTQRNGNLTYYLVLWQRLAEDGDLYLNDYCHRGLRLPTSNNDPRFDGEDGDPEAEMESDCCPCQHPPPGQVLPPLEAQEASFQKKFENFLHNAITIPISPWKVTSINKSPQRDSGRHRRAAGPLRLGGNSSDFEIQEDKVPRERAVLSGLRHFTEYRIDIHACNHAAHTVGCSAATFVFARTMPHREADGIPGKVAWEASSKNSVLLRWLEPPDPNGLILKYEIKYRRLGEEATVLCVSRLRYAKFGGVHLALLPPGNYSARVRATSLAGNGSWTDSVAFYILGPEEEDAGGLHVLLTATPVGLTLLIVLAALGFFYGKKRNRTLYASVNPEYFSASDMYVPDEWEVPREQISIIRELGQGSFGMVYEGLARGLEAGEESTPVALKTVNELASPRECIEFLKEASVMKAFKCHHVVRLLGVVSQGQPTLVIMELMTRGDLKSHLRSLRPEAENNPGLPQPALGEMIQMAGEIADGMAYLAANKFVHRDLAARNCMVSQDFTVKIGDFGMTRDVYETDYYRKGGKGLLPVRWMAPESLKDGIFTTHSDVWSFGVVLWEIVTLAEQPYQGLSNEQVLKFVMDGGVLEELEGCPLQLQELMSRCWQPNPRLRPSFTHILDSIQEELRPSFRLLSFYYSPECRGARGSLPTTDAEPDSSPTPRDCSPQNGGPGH
EPHB3 (human), sequence (P54753 whole entry, looked up): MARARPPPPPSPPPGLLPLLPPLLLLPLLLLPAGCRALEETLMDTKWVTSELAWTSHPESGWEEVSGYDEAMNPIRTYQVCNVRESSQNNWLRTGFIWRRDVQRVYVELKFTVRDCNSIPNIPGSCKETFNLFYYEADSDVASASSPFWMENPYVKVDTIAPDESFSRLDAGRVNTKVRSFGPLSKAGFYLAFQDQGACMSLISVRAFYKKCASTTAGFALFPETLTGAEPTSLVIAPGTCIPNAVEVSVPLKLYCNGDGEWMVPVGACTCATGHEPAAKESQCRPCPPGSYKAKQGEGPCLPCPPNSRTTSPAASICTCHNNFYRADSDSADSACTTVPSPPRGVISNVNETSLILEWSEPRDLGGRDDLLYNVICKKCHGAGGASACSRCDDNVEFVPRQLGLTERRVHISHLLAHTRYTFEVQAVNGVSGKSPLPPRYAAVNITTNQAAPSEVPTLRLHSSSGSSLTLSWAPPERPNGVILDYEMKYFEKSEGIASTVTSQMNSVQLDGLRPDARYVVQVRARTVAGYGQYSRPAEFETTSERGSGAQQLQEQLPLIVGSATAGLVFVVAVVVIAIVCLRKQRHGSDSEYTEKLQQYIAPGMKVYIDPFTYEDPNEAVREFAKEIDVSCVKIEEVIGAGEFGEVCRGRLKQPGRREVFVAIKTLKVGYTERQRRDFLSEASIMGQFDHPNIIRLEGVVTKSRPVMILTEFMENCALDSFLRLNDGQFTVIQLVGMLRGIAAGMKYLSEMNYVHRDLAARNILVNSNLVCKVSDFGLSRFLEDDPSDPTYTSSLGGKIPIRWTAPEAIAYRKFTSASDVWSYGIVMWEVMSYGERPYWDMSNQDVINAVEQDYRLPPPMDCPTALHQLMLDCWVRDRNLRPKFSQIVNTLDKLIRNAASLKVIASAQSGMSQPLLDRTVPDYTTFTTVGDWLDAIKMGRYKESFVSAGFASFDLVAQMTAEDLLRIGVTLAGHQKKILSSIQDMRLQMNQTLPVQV
EPHB2 (human), sequence (P29323 whole entry, looked up): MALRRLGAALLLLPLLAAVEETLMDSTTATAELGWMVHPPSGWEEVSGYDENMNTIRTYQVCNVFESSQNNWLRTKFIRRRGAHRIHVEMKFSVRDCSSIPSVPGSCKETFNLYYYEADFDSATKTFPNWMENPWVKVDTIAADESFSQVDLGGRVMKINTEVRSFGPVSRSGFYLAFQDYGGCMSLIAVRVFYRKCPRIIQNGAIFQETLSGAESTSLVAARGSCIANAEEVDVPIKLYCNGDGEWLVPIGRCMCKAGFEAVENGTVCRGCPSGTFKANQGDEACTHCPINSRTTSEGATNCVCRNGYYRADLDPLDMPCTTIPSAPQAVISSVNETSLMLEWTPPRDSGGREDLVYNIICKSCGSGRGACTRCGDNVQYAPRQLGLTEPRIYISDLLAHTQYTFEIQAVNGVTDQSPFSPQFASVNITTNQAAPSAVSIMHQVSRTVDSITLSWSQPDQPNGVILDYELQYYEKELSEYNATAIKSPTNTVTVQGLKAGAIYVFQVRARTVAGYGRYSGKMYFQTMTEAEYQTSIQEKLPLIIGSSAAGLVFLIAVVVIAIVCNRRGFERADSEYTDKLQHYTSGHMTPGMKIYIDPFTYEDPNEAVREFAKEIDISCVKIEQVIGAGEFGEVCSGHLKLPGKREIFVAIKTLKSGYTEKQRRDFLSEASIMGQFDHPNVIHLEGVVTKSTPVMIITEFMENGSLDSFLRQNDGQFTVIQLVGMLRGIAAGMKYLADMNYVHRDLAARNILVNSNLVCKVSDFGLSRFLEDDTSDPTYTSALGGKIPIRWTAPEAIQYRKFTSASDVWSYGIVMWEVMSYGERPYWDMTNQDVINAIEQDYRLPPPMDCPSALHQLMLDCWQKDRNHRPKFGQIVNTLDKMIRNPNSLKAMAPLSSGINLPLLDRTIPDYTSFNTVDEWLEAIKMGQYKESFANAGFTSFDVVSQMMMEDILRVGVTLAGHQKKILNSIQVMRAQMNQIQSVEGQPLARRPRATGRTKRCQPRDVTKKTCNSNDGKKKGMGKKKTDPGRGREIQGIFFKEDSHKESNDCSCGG
MAPK15 (human), sequence (Q8TD08 whole entry, looked up): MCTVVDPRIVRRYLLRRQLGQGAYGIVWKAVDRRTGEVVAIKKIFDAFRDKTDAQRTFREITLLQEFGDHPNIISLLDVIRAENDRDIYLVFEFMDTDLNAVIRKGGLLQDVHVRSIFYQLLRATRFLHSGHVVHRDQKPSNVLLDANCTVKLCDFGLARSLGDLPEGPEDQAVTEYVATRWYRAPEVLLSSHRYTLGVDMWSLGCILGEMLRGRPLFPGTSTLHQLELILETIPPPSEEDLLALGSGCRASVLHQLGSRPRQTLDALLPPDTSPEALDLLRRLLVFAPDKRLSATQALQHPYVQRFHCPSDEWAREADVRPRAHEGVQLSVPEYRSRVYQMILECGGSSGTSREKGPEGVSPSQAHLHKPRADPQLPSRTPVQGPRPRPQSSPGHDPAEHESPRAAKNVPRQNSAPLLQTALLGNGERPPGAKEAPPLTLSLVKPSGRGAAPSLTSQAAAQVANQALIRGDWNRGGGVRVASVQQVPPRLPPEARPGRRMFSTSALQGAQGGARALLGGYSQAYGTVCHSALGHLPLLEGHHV

- residual activity (EPHB2 (human); compound 0.1 µM): 88.5%
- residual activity (EPHB2 (human); compound 1.0 µM): 23.4%
- residual activity (EPHB2 (human); compound 10.0 µM): 3.11%
- residual activity (EPHB3 (human); compound 0.1 µM): 96.6%
- residual activity (EPHB3 (human); compound 1.0 µM): 29.5%
- residual activity (EPHB3 (human); compound 10.0 µM): 7.66%
- residual activity (HIPK3 (human); compound 0.1 µM): 110%
- residual activity (HIPK3 (human); compound 1.0 µM): 70.3%
- residual activity (HIPK3 (human); compound 10.0 µM): 19.8%
- residual activity (INSRR (human); compound 0.1 µM): 112%
- residual activity (INSRR (human); compound 1.0 µM): 91.3%
- residual activity (INSRR (human); compound 10.0 µM): 46.1%
- kinase still bound, per cent of control [1]: 0.4%
- kinase still bound, per cent of control [2]: 0%
- kinase still bound, per cent of control [3]: 1.1%
- kinase still bound, per cent of control (ABL2 (human)): 0.6%
- residual activity (CDK18 (human)): 1.8%
- residual activity (CDK8 (human)): 3.9%
- kinase still bound, per cent of control (DDR1 (human)): 0.05%
- kinase still bound, per cent of control [4]: 14%
- kinase still bound, per cent of control [5]: 14%
- kinase still bound, per cent of control (EPHA8 (human)): 0.1%
- kinase still bound, per cent of control (ERBB4 (human)): 28%
- kinase still bound, per cent of control (FGFR1 (human)): 1.7%
- kinase still bound, per cent of control (FGFR4 (human)): 0.45%
- kinase still bound, per cent of control [6]: 1.2%
- kinase still bound, per cent of control (FLT4 (human)): 0.2%
- kinase still bound, per cent of control (GAK (human)): 31%
- kinase still bound, per cent of control [7]: 2.7%
- kinase still bound, per cent of control (MAP4K2 (human)): 0.3%
- kinase still bound, per cent of control (MAPK8 (human)): 0%
- kinase still bound, per cent of control (MAPK9 (human)): 0%
- kinase still bound, per cent of control (MKNK2 (human)): 4.2%
- kinase still bound, per cent of control (MUSK (human)): 0.2%
- kinase still bound, per cent of control (MYO3B (human)): 4.8%
- kinase still bound, per cent of control (NLK (human)): 14%
- kinase still bound, per cent of control (NTRK3 (human)): 3.8%
- kinase still bound, per cent of control (PDGFRA (human)): 0.6%
- kinase still bound, per cent of control (PTK2 (human)): 23%
- kinase still bound, per cent of control (RAF1 (human)): 7%
- kinase still bound, per cent of control [8]: 1%
- kinase still bound, per cent of control (SRC (human)): 0.2%
- kinase still bound, per cent of control (STK36 (human)): 0.2%
- kinase still bound, per cent of control (TEK (human)): 0%
- kinase still bound, per cent of control (TNIK (human)): 8.2%
- kinase still bound, per cent of control (TNNI3K (human)): 4.8%
SMILES: CCN1CCN(Cc2ccc(NC(=O)c3ccc(C)c(Oc4ccnc5[nH]ccc45)c3)cc2C(F)(F)F)CC1
- residual activity (MAPK15 (human); compound 0.1 µM): 106%
- residual activity (MAPK15 (human); compound 10.0 µM): 44.6%
